The record followed here is patent EP1796707B1, “PEPTIDES THAT SELECTIVELY HOME TO HEART VASCULATURE AND RELATED CONJUGATES AND METHODS” (The Burnham Institute, priority 2004, dated 2011).

In assay [1] the test system is heart endothelia. The assay is described as follows: Phage localization in tissues: co-injection with fluorescein-conjugated tomato lectin, anti-T7 immunostaining. Type of assay: in vivo, mice. To be noted: peptide displayed on phage, anti-T7 antibody; for phage presence in heart endothelia: injected intravenously with fluorescein-conjugated tomato lectin; for phage detection in tissues other than heart: same conditions. Here is the method: Further characterization was performed on the five most efficient homing peptides, as indicated by the fold-selectivity summarized in Table 1, and their putative receptors. These homing peptides were analyzed for the ability to selectively bind heart endothelia in vivo and for specific binding to their putative receptors, which also were analyzed for expression in heart endothelia. Each of the phage-displaying a particular homing peptide was individually injected intravenously into mice with fluorescein-conjugated tomato lectin, a blood vessel marker. […] None of the six phage were detected in tissues other than heart under the same conditions.
Immunohistochemistry was performed as follows. Rat monoclonal anti-mouse CD31 (1:100) was obtained from BD Pharmingen (San Jose, CA), and rabbit polyclonal anti-T7 phage (1:500), and chicken anti-mouse CRIP2 IgY (1:100) were obtained from GenWay (San Diego, CA). Secondary antibodies, AlexaFluor-488 goat anti-rat IgG (1:1000) and AlexaFluor-594 goat anti-rat or rabbit IgG (1:1000) were obtained from Molecular Probes (Eugene, OR); the secondary antibody GAYFC-AlexaFluor 594 goat anti-IgY Fc (1:250) was obtained from GenWay. Frozen sections were preincubated with blocking buffer (5% normal goat serum and 0.5% BSA in 1x PBS) for one hour, washed three times with PBS, and incubated with the primary antibody of interest overnight at 4°C. After the overnight incubation, secondary antibodies were added and incubated for one hour at room temperature. Slides were washed three times with PBS and mounted in Vectashield Mounting Medium with DAPI (Vector Laboratories; Burlingame, California). Blood vessels were additionally visualized by intravenous injection with Lycopersicon esculentum (tomato) lectin conjugated to fluorescein (100 µg in 200 µl of PBS) purchased from Vector Laboratories.

In assay [2] the test system is heart vasculature. Description: In vivo phage homing to the heart after intravenous injection. The settings on record: peptide displayed on T7Select 415-1 phage, assayed individually, intravenous injection into mice. Here is the method:
In vivo panning was performed as follows. The ex vivo-selected phage pool (5 x 10^9 p.f.u.) was intravenously injected into mice through the tail vein and allowed to circulate for ten minutes before mice were carefully perfused through the left ventricle with DMEM in order to remove unbound intravascular phage. The heart and control tissues (brain, kidney, skin and muscle) were excised, and phage recovered as described in Hoffman et al., supra, 2004. Phage recovered from the heart were reinjected into mice, and the cycle was repeated for a total of three rounds. Non-recombinant phage were injected into a separate mouse as a control in each experiment.
As summarized in Table 1, receptor clone 5 represents the carboxy-terminal 92 amino acids of heart LIM-protein (HLP), also designated cysteine-rich protein 2 (CRIP2) and ESP 1. HLP, which is expressed in the vascular heart (Yu et al., Mech. Dev. 116:187-192 (2002)) is a LIM domain-containing protein having homology to Crp-1 (Karim et al., Genomics 31:167-176 (1996); and van Ham et al., Genes Cells 8:631-644 (2003)). Of the five positive colonies from the two-hybrid analysis with the HLP clone, three cognate peptides were identified: CRPPR (SEQ ID NO: 1) was present twice, CGRKSKTVC (SEQ ID NO: 2) once and CGNQVDSRC (SEQ ID NO: 3) twice. After cloning these peptides into the T7Select 415-1 display vector, they were assayed for their ability to home to heart vasculature following intravenous injection. Relative to non-recombinant phage, the CRPPR (SEQ ID NO: 1)-displaying phage homed with more than 300 fold selectivity to the heart (Figure 2A).
Individual phage clones were reconstructed as follows. Oligonucleotides that encoded peptides from selected bait plasmids were synthesized, phosphorylated with T4 polynucleotide kinase (PNK; NEB) at 37°C for one hour, and annealed at a concentration of 0.08 pmol/µl. The annealed inserts were diluted to 0.04 pmol/µl and ligated into T7Select 415-1 arms (Novagen) with T4 ligase overnight at 16°C. The next day, intact recombinant phage were prepared by mixing the ligation reaction with packaging extracts as described by the manufacture. Inserts were confirmed by sequencing, and individual clones were amplified for ex vivo and in vivo testing as described in Example I above.

The subject of assay [3] is MpcII-3-related protein. Description: Phage binding to 293T cells transfected with cognate receptor, with free peptide competition. More on the design: species or system murine. How it is done:
(§1) Full-length cDNAs were constructed for four of the putative heart homing receptors, HLP/CRIP2, Sigirr/TIR8, and MpcII-3-related protein and bc10, and expressed in 293T cells. […]
(§2) Receptor transfections and phage binding assays were performed as follows. 293T cells were transfected with pMH6-derived plasmids (Roche Diagnostics; Indianapolis, IN) encoding HLP/CRIP2, Sigirr/TIR8, MpcII-3-retated protein and bc10 using the Fugene transfection reagent (Roche Diagnostics). Briefly, 10 µg of plasmid was mixed with 700 µl of serum-free DMEM and 30 µl of Fugene transfection reagent and incubated for 15 minutes at room temperature before the mixture was added to cells. After forty-eight hours, cells were detached from culture dishes using EDTA and washed once with PBS. Phage displaying CRPPR (SEQ ID NO: 1), CKRAVR (SEQ ID NO: 7), CRSTRANPC (SEQ ID NO: 11) or CPKTRRVPC (SEQ ID NO: 12) and nonrecombinant control phage (1 x 10^9 p.f.u) were incubated with transfected cells for two hours at 4°C. Unbound phage were removed by five washes with 1% BSA in PBS. Bound phage were rescued by addition of bacteria; binding efficiencies were determined by plaque assay as described above.
(§3) Peptides for competition assays were synthesized at The Burnham Institute peptide facility using Fmoc chemistry in a solid-phase synthesizer prior to purification by HPLC and confirmation of their identity by mass spectrometry. Fluorescein-conjugated peptides were synthesized as described in Wender et al., Proc. Natl. Acad. Sci. USA 97:13003-13008 (2000). Competition assays were performed by addition of 100 µg peptide to the cells and phage, followed by incubation at 4°C for two hours. After five washes with […], bound phage were rescued and quantitated by plaque assay.

The subject of assay [4] is bc10. The description is as above. Also on record: species or system murine. How it is done: as §1, §2, §3
[5] abbreviates: conclusion from phage binding and competition on transfected 293T cells.

For the sequence “CRSTRANPC [tested on phage and as free peptide]”, in assay [1], the “phage presence in heart endothelia” value is reported as “present in heart endothelia” and the “phage detection in tissues other than heart” value (from here on “phage detection”) is listed as “absent from other tissues”. Further, the “heart homing selectivity relative to non-recombinant phage” value in assay [2] is recorded as “about 20 fold”. Besides, the “specific binding to the receptor (in words)” value in assay [3] (setting [5]) is “specifically binds”. In assay [3] (free synthetic peptide 100 mg/ml, CRSTRANPC phage on cells transfected with MpcII-3-related protein), the “inhibition of phage binding to transfected cells by competition with free peptide” value is listed as “inhibited”.
For “CPKTRRVPC [tested on phage and as free peptide]”, in assay [1], the “phage presence in heart endothelia” value is “present in heart endothelia” and the “phage detection” value is reported as “absent from other tissues”. Also, the “heart homing selectivity relative to non-recombinant phage” value in assay [2] is reported as “about 60 fold”. Besides, in assay [4] (setting [5]), the “specific binding to the receptor (in words)” value is “specifically binds”. Further, the “inhibition of phage binding to transfected cells by competition with free peptide” value in assay [4] (free synthetic peptide 100 µg/ml, CPKTRRVPC phage on bc10 transfected cells) is “inhibited”.
For CGRKSKTVC, the “heart homing selectivity relative to non-recombinant phage” value in assay [2] is “about 50 fold”.
In the case of “CLIDLHVMC [peptide identified with receptor clone 27; phage served as a negative control]”, in assay [1], the “phage presence in heart endothelia” value is reported as “absent from the heart”; the “phage detection” value was “absent from the heart and other tissues”.
CSGMARTKC: the “heart homing selectivity relative to non-recombinant phage” value in assay [2] was about 10 fold.
